Laboratory results as given in PubChem BioAssay (NCI).
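Values below derive from 48-hour exposures of cells grown in 96-well plates, with endpoints linearly interpolated between the two concentrations bracketing the appropriate inhibition level. TGI: concentration producing complete growth inhibition.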

What was measured:
Experiment in all cases: NCI tumour cell line growth inhibition, 48 h
[1] = test system: MDA-MB-231 breast
[2] = test system: OVCAR-8 ovarian
[3] = test system: HT29 colon
[4] = test system: CAKI-1 renal
[5] = test system: SK-MEL-28 melanoma
[6] = test system: MDA-N
[7] = test system: SNB-75 CNS
[8] = test system: SNB-19 CNS
[9] = test system: UO-31 renal
[10] = test system: SF-539 CNS
[11] = test system: LOX IMVI melanoma
[12] = test system: SW-620 colon
[13] = test system: HS 578T breast
[14] = test system: IGROV1 ovarian
[15] = test system: EKVX NSCLC
[16] = test system: A549 NSCLC
[17] = test system: HCT-15 colon
[18] = test system: SK-OV-3 ovarian
[19] = test system: BT-549 breast
[20] = test system: SK-MEL-2 melanoma
[21] = test system: MALME-3M melanoma
[22] = test system: SF-295 CNS
[23] = test system: NCI/ADR-RES ovarian
[24] = test system: UACC-257 melanoma
[25] = test system: HCT-116 colon
[26] = test system: HCC-2998 colon
[27] = test system: SN12C renal
[28] = test system: COLO 205 colon
[29] = test system: TK-10 renal
[30] = test system: M14 melanoma
[31] = test system: MCF7 breast
[32] = test system: NCI-H226 lung
[33] = test system: OVCAR-4 ovarian
[34] = test system: T-47D breast
[35] = test system: HOP-92 NSCLC
[36] = test system: MDA-MB-435
[37] = test system: 786-0 renal
[38] = test system: SF-268 CNS
[39] = test system: DU-145 prostate
[40] = test system: OVCAR-3 ovarian
[41] = test system: NCI-H23 lung
[42] = test system: NCI-H522 lung
[43] = test system: SK-MEL-5 melanoma
[44] = test system: RXF 393 renal
[45] = test system: UACC-62 melanoma
[46] = test system: RPMI-8226 leukemia
[47] = test system: KM12 colon
[48] = test system: A498 renal
[49] = test system: U251 CNS
[50] = test system: HOP-62 NSCLC
[51] = test system: CCRF-CEM leukemia
[52] = test system: NCI-H460 lung
[53] = test system: SR leukemia
[54] = test system: ACHN renal
[55] = test system: OVCAR-5 ovarian
[56] = test system: MOLT-4 leukemia
[57] = test system: PC-3 prostate
[58] = test system: HL-60(TB) leukemia
[59] = test system: K-562 leukemia

`C/C(=N\NC(=S)NC(C)(C)C)c1ccccn1` was tested, and the TGI [1] was > 100 µM, the TGI [2] was > 36.6 µM and the TGI [3] was > 76.6 µM. The TGI [4] was > 100 µM, the TGI [5] was > 100 µM and the TGI [6] was > 100 µM. For the same molecule, the TGI [7] was > 100 µM, the TGI [8] was > 100 µM and the TGI [9] was 14.3 µM. The TGI [10] was 18.1 µM, the TGI [11] was > 100 µM and the TGI [12] was > 100 µM. For the same molecule, the TGI [13] was > 100 µM, the TGI [14] was > 40.6 µM and the TGI [15] was > 100 µM. The TGI [16] was > 38.4 µM, the TGI [17] was > 100 µM and the TGI [18] was 80.1 µM. For the same molecule, the TGI [19] was > 100 µM, the TGI [20] was > 100 µM and the TGI [21] was > 79.5 µM. The TGI [22] was > 100 µM, the TGI [23] was > 39.7 µM and the TGI [24] was > 100 µM. For the same molecule, the TGI [25] was > 100 µM, the TGI [26] was > 100 µM and the TGI [27] was > 88.5 µM. For the same molecule, the TGI [28] was > 100 µM, the TGI [29] was > 100 µM and the TGI [30] was 9.19 µM. For the same molecule, the TGI [31] was > 100 µM, the TGI [32] was 16 µM and the TGI [33] was > 100 µM. The TGI [34] was 34.9 µM, the TGI [35] was 9.47 µM and the TGI [36] was > 100 µM. The TGI [37] was 98.4 µM, the TGI [38] was > 87.8 µM and the TGI [39] was > 100 µM. The TGI [40] was > 100 µM, the TGI [41] was > 100 µM and the TGI [42] was > 23.1 µM. For the same molecule, the TGI [43] was > 40 µM, the TGI [44] was 23.2 µM and the TGI [45] was 25.7 µM. The TGI [46] was 3.72 µM, the TGI [47] was > 100 µM and the TGI [48] was > 39.6 µM. The TGI [49] was > 85.9 µM and the TGI [50] was > 100 µM.

With `CC(C)CC(NC(=O)C(CCI)Cc1ccccc1)C(=O)Nc1ccccc1` (centres undefined) the TGI [1] was > 100 µM, the TGI [2] was > 100 µM and the TGI [4] was > 100 µM. The TGI [5] was > 100 µM, the TGI [6] was > 100 µM and the TGI [7] was > 100 µM. The TGI [8] was > 100 µM, the TGI [9] was 84.7 µM and the TGI [10] was > 100 µM. For the same molecule, the TGI [11] was > 100 µM, the TGI [51] was > 100 µM and the TGI [12] was > 100 µM. The TGI [14] was > 100 µM, the TGI [15] was > 100 µM and the TGI [52] was > 100 µM. For the same molecule, the TGI [53] was > 100 µM, the TGI [16] was > 100 µM and the TGI [54] was > 100 µM. The TGI [17] was > 100 µM, the TGI [18] was > 100 µM and the TGI [19] was 66.5 µM. The TGI [20] was > 100 µM, the TGI [21] was > 100 µM and the TGI [22] was > 100 µM. For the same molecule, the TGI [23] was > 100 µM, the TGI [24] was > 100 µM and the TGI [25] was > 100 µM. The TGI [55] was > 100 µM, the TGI [26] was > 100 µM and the TGI [27] was > 100 µM. The TGI [28] was > 100 µM, the TGI [29] was > 100 µM and the TGI [30] was > 100 µM. For the same molecule, the TGI [31] was > 100 µM, the TGI [32] was > 100 µM and the TGI [33] was > 100 µM. For the same molecule, the TGI [56] was 83.6 µM, the TGI [35] was > 100 µM and the TGI [36] was > 100 µM. The TGI [37] was > 100 µM, the TGI [39] was > 100 µM and the TGI [40] was > 100 µM. The TGI [57] was > 100 µM, the TGI [41] was > 100 µM and the TGI [42] was 78.1 µM. For the same molecule, the TGI [43] was > 100 µM, the TGI [44] was > 100 µM and the TGI [45] was > 100 µM. The TGI [58] was 64.6 µM, the TGI [46] was > 100 µM and the TGI [47] was > 100 µM. The TGI [59] was > 100 µM, the TGI [48] was > 100 µM and the TGI [49] was > 100 µM.
